The source of these data is ChEMBL document CHEMBL1201862, “PubChem BioAssay data set” (2004).

Structures are written as SMILES. Calls of active or inactive are those of the source.

A short description of assay [1]: HEK-293T viability loss after treatment – luminescence, T-cell screen hits, cytotoxicity control for TCR NF-kB inhibitor project, dose response (AID 489026).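 Note: cells exposed to compound about 14 hours before the viability readout.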 Format: functional, cell-based.
The nature of assay [2]: luciferase reporter signal suppression in cells – H4 neuroglioma cells, luminescence, dose response (AID 1990). Format: functional, cell-based.
The target in assay [3] is T1, Mucolipin-3 (Homo sapiens, UniProt Q8TDD5).
T1 sequence (Q8TDD5 whole entry): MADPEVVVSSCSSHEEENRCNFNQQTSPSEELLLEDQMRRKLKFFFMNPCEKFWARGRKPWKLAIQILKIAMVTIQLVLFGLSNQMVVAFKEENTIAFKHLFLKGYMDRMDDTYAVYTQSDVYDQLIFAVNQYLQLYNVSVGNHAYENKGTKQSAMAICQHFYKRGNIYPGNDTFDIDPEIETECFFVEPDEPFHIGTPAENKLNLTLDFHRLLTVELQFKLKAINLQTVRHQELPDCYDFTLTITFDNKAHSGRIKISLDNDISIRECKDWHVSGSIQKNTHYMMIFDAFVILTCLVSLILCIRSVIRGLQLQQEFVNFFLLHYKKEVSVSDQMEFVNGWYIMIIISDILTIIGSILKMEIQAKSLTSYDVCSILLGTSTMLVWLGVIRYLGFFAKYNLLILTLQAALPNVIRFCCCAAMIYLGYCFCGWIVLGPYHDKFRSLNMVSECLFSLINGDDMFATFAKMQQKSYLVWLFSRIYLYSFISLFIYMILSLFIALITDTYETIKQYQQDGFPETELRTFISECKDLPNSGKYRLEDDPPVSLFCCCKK
Kind of assay: activators of mucolipin-3 and mucolipin-2 – cell-based, patch clamp, Fura-2 profiling panel, panel member TRPML3 Dose Response (AID 2116).

Assay [4] can be described thus: alpha-synuclein stem-loop luciferase translation blockers – H4 neuroglioma cells, luminescence, confirmation (AID 1988). Format: functional, cell-based.
Assay [5] is described as follows: Luminescence Cell-Based Dose Response HTS to Identify Inhibitors of 5'UTR Stem-Loop Driven Prion Protein mRNA Translation in H4 Neuroglioblastoma Cells. [Related pubchem assays: 1827 (Project Summary), 1813 (Primary HTS)]. Format: functional.
Assay [6] has as its target T2, Ion channel NompC (Danio rerio, UniProt Q7T1G6). Kind of assay: Fluorescence counterscreen assay for TRPML3 agonists: dose response cell-based high-throughput screening assay to identify agonists of the transient receptor potential channel N1 (TRPN1). [Related pubchem assays: 1526, 1424, 1448 ]. Format: functional.
Assay [7] addresses T2, Ion channel NompC. Kind of assay: activators of mucolipin-3 and mucolipin-2 – cell-based, […], Fura-2 profiling panel, panel member TRPN1 Dose Response (AID 2116). A general note: The patch-clamp technique gives a direct electrical read-out from membranes.
Assay [8] deals with T1, Mucolipin-3. The assay can be described thus: Dose response cell-based high-throughput screening assay for agonists of the transient receptor potential channel ML3 (TRPML3). [Related pubchem assays: 1526, 1424, 1448 ]. The format is functional.
Assay [9] deals with T3, Eukaryotic translation initiation factor 2-alpha kinase 3 (Homo sapiens, UniProt Q9NZJ5). Kind of assay: Counterscreen assay for PERK inhibitors: Dose response cell-based high throughput screening assay to measure inhibition of PERK at 6 hours. [Related pubchem assays: 1522, 1416 ]. Format: functional. Background: A counterscreen serves to expose hits that act by an unwanted route or on another target.

Assay [10] deals with T3, Eukaryotic translation initiation factor 2-alpha kinase 3. Kind of assay: Dose response cell-based high-throughput screening assay to measure PERK inhibition. [Related pubchem assays: 1416 ]. The format is functional.
The test system of assay [11] is Streptococcus. The assay can be described thus: GAS UMAA2166 growth inhibition – luminescence, BacTiterGlo, counter-screen for streptokinase expression inhibitor project, dose response (AID 1915).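 Note: potency for reduction of bacterial viability or growth.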 The format is functional, organism-based.
The nature of assay [12]: cells. The format is functional, cell-based.
The subject of assay [13] is BJ. The assay can be described thus: cells. The settings on record: Homo sapiens. Format: functional, cell-based.
In assay [14] the test system is Vero. Kind of assay: Vero cell viability after compound exposure – synthesized analogs, set II, cytotoxicity control for West Nile virus antiviral project, SAR follow-up (AID 2402). The settings on record: Chlorocebus sabaeus. The format is functional.
Assay [15] deals with BJ. Kind of assay: BJ-TERT fibroblast viability loss – cell-based, RAS-independent, luminescence, dose response (AID 1933). Format: functional. As to conditions: Homo sapiens.
Assay [16] has as its system Streptococcus sp. 'group A'. The assay can be described thus: Streptococcus pyogenes SK(-)GAS viability under kanamycin – luminescence, BacTiterGlo, confirmation, counter-screen for streptokinase expression inhibitor project, dose response (AID 1900). Format: functional, organism-based.
Assay [17] in a line: cells. Format: functional, cell-based. This is another data set of the same source.
Assay [18] can be described thus: NIH-3T3 fibroblast cytotoxicity, dose response, cytotoxicity control, cell-based, fluorescence, Alamar Blue, secondary assay (AID 2327).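 Note: NIH-3T3 mouse fibroblasts cultured with fluconazole at 8 µg/mL.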 The format is functional.
The nature of assay [19]: Trypanosoma cruzi growth suppression in host cells – NIH3T3 host cells, beta-gal luminescence, confirmation (AID 2044).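 Note: intracellular parasites grown in NIH/3T3 mouse fibroblasts as host cells; luminescent beta-galactosidase reporter signal from transgenic T. cruzi replicating inside host cells; inhibitors lower the luminescence signal.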 Format: functional, cell-based.
Assay [20] in a line: loss of viability in HepG2 cells – cell-based, CellTiter-Glo, cherry-picked, cytotoxicity control for Shn3 inhibitor project, dose response (AID 624134). Format: functional.
Assay [21] relates to Vero. The assay can be described thus: cells. As to conditions: Chlorocebus sabaeus. Format: functional.
Assay [22] can be described thus: non-specific 3'UTR reporter inhibition in Clone20-Shn3RL – cell-based, Renilla luciferase, cherry-picked, counter-screen for Shn3 inhibitor project, dose response (AID 624133). Format: functional.
Assay [23] can be described thus: A Cell Based Assay for the Identification of Probe candidate Compounds with Anti- Venezuelan Equine Encephalitis virus. [Related pubchem assays: 2409, 2419, 1621, 2238, 2405, 2024, 2065, 2402, 2414, 1635, 1650, 2244 ]. Format: functional.
Assay [24] in a line: reduction of Shn3 3'UTR-driven luciferase in osteoblasts – cell-based, Clone20 osteoblasts, firefly luciferase, cherry-picked, dose response (AID 624132).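 Note: firefly luciferase luminescence from reporter carrying the Shn3 3'UTR in osteoblasts.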 Format: functional.
Assay [25] deals with Vero. The assay can be described thus: host cell viability loss, Vero E6 – synthesized analogs, cytotoxicity control for West Nile virus antiviral project, SAR follow-up (AID 2244). Format: functional. As to conditions: Chlorocebus sabaeus.
Assay [26] in a line: fluconazole-exposed Candida albicans growth modulators – fluorescence, retest, confirmation (AID 2467). Format: functional, cell-based.
Assay [27] has as its system INS1. Kind of assay: INS-1E survival protection against cytokine death – cell-based, luminescence, retest, dose response (AID 449756).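 Note: cell death triggered by IL-1 beta plus TNF-alpha plus IFN-gamma mixture; protective hits raise ATP signal compared with cytokine alone wells.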 Format: functional. The settings on record: Rattus norvegicus.
For assay [28], the system named is BJ. The assay can be described thus: BJ-TERT-LT-ST fibroblast viability loss – cell-based, RAS-independent, luminescence, dose response (AID 1935).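 Note: BJ fibroblasts immortalized with TERT plus LT and ST oncogenes.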 The settings on record: Homo sapiens. The format is functional.
A short description of assay [29]: DRD fibroblast viability loss – cell-based, non-viral oncogenic, luminescence, dose response (AID 1934). Format: functional. As to conditions: Homo sapiens.
Assay [30] has as its system Vero. The assay can be described thus: Vero 76 cell viability after compound exposure – Vero 76 cells, synthesized analogs, cytotoxicity control for West Nile virus antiviral project, SAR follow-up (AID 2414). The format is functional. As to conditions: Chlorocebus sabaeus.
Assay [31] in a line: NIH3T3 cell viability loss – ATP luminescence, mouse fibroblasts, counter-screen, dose response (AID 2010).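 Note: cells exposed to compound for about 90 hours before reading.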 The format is functional, cell-based.
In assay [32] the target is T4, Neuropeptide Y receptor type 1 (Homo sapiens, UniProt P25929).
T4 sequence (P25929 whole entry): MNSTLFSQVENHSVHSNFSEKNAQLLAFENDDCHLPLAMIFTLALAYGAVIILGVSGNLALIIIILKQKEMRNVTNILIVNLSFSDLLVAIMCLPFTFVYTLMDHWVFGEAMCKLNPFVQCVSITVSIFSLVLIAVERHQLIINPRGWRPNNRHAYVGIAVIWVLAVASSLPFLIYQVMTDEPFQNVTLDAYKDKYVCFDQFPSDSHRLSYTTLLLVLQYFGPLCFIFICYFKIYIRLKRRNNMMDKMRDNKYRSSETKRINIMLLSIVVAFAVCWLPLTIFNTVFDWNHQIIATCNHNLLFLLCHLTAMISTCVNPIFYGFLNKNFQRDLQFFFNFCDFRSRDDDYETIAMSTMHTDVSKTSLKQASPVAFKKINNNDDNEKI
Kind of assay: Fluorescence-based counterscreen for agonists of NPY-Y2: cell-based high-throughput dose response assay for agonists of NPY-Y1. The format is functional.

In assay [33] the target is T5, Neuropeptide Y receptor type 2 (Homo sapiens, UniProt P49146).
T5 sequence (P49146 whole entry): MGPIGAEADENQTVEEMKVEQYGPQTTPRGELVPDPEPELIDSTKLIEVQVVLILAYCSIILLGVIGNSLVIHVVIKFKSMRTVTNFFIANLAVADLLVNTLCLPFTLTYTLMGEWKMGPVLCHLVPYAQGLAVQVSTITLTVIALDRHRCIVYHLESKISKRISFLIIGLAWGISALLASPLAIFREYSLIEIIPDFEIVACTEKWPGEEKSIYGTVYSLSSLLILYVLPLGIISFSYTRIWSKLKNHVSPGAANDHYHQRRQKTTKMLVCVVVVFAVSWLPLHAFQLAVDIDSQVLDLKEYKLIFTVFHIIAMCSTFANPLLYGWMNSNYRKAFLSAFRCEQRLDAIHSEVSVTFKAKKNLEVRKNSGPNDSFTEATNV
The assay can be described thus: Fluorescence-based cell-based high-throughput dose response assay for agonists of NPY-Y2. [Related pubchem assays: 1703 (Screening assay (CNGC inhibitors).), 1359 (Screening assay (NPY-Y2 potentiators or agonists).), 1304 (Screening assay (NPY-Y1 potentiators or agonists).), 1710 (Screening assay (NPY-Y2 agonists).), 1791 (Summary AID.)]. The format is functional.

In assay [34] the test system is HEK293. The assay can be described thus: Fluorescence-based counterscreen for potentiators or agonists of NPY-Y2: cell-based high-throughput dose response assay to identify inhibitors of cyclic nucleotide gated ion channel (CNGC) activity. In this assay, the parental HEK293 cell line transfected with a cyclic-nucleotide gated ion channel (CNGC)-based cAMP sensor is used to measure inhibition of isoproterenol-induced CNGC activity by test compound. The format is functional. As to conditions: Homo sapiens.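 Note: stimulus is 1 µM isoproterenol at EC100 plus PDE inhibitor Ro 20-1724 at 25 µM.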

The term IC50 denotes the concentration at which inhibition is half-maximal. Usually EC50 stands for the concentration that produces a half-maximal response. As a reminder, the CC50 is the concentration at which the toxic effect on the cells reaches its halfway point. In general, AC50 refers to the concentration at which the activity in the assay is half-maximal.

T2 sequence (Q7T1G6 whole entry): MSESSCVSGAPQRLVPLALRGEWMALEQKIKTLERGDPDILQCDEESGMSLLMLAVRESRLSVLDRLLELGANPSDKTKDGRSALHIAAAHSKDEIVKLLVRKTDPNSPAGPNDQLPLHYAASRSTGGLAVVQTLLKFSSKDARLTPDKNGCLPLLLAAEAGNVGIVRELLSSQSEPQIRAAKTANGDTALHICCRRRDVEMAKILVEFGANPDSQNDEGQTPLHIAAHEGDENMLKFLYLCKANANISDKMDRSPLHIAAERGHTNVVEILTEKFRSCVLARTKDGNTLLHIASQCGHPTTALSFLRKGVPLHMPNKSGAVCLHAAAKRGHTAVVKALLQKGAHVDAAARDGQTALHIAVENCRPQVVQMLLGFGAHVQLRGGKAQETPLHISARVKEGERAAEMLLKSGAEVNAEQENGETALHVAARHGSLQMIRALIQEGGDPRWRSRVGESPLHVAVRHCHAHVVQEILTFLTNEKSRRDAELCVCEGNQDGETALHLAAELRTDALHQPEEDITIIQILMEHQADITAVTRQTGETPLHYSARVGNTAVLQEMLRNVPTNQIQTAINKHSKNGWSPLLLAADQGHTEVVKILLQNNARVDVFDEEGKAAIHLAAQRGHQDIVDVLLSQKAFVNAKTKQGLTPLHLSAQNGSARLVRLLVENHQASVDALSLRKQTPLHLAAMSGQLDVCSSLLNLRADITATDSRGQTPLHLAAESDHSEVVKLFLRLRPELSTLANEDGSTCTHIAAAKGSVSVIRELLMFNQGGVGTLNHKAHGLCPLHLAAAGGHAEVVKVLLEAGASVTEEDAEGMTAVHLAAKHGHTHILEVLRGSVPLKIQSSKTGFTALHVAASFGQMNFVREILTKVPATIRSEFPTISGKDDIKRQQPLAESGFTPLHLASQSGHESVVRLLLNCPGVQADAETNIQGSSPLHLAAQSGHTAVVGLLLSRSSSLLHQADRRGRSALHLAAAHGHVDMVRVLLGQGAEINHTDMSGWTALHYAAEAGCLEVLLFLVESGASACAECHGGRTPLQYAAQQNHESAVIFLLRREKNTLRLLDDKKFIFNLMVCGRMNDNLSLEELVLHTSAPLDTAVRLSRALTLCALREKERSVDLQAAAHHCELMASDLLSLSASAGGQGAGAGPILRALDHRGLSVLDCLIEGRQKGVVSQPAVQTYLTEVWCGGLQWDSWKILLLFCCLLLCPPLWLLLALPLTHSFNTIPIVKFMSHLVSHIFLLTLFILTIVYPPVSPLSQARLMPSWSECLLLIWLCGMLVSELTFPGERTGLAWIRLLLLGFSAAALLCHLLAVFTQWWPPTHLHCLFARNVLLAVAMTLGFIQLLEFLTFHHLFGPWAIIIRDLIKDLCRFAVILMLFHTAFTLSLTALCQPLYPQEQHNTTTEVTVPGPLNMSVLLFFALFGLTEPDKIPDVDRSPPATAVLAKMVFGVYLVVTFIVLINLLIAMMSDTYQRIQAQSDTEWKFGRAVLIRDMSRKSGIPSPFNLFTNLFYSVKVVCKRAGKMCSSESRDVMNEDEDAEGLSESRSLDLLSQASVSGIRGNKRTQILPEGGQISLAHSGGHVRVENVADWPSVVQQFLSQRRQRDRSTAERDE
T3 sequence (Q9NZJ5 whole entry): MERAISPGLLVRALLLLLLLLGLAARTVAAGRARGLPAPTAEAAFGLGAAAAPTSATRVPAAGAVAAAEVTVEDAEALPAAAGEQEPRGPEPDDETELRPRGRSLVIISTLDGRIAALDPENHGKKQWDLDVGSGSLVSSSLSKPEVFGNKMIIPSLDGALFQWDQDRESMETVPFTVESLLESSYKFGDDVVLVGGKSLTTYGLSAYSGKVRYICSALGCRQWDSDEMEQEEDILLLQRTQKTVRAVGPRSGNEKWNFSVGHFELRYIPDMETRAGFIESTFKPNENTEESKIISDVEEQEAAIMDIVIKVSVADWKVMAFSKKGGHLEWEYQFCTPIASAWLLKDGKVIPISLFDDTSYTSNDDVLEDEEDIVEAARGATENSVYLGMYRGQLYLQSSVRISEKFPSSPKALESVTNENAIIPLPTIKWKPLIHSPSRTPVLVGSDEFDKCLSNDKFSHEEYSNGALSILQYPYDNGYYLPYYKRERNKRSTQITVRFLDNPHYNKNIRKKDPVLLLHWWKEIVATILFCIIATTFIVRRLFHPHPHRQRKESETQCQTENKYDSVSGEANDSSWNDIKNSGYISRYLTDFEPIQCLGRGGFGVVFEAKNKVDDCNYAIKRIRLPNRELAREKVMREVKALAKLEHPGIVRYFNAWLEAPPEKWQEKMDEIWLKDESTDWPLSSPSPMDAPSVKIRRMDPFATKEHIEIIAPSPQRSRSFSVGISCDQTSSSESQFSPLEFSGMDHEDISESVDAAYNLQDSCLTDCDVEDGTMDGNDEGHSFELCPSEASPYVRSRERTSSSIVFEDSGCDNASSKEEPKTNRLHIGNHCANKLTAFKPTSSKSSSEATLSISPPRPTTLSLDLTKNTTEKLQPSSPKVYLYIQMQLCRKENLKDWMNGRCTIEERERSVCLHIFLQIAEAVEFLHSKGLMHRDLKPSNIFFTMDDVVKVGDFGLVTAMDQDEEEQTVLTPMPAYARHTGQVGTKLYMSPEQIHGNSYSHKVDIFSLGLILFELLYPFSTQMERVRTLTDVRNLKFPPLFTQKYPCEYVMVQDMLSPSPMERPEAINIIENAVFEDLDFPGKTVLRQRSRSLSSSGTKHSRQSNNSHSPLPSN

Turning to `Cc1ccc(S(=O)(=O)Nc2ccccc2-c2ccccc2)cc1`, in [1], the IC50 is 79.9 µM (inactive). Besides, the concentration giving a half-maximal response (EC50) in assay [2] was > 120 µM (not active); in assay [3] it was 2.14 µM (active); in assay [4] it was 11.2 µM (active); in [5] it was > 120 µM (not active); in assay [6] it was > 29.9 µM (not active); in [7] it was > 29.9 µM (inactive). Also, the EC50 in assay [8] is 1.59 µM (active).

On to `COC(=O)c1ccc(OCCOc2ccc(C(=O)OC)cc2)cc1`, for which the EC50 in assay [9] and in [10] was > 55.7 µM (not active) throughout.

Regarding `Oc1ccccc1C(Nc1nccs1)c1ccc2cccnc2c1O` (configuration not stated), the EC50 in assay [11] is 6.55 µM (active); in [12], 12.5 µM (active); in [2], 11.9 µM (active); in [13] it was 13.9 µM (active); in assay [4], 9.59 µM (active); in assay [15] it was 8.13 µM (inconclusive). Besides, the concentration giving a half-maximal response (EC50) in [16] is 2.3 µM (active); in assay [17] it was > 350 µM (not active); in assay [18], 6.03 µM (active); in assay [19] it was 0.832 µM (active); in [5], 8.46 µM (active); in [26] it was 1.4 µM (active). For the same molecule, the concentration for a half-maximal effect (EC50) in assay [28] is 9.11 µM (active); in assay [29], 10.7 µM (active); in assay [31], 9.11 µM (active). Besides, the cytotoxic concentration (CC50) was 7.2 µM (active) in assay [14], 10.3 µM (active) in [21], 8 µM (active) in assay [25] and 21.6 µM (active) in assay [30]. The AC50 is 6.74 µM (active) in [20], 2.47 µM (active) in assay [22], 1.13 µM (active) in assay [24] and 1.95 µM (active) in assay [27]. For the same molecule, the 50% inhibitory concentration (IC50) in assay [23] is 20.9 µM (active).

Take `Cc1ccc(Cl)cc1NC(=O)c1cc2ccccc2cc1O`: the EC50 in assay [32] is on record as 17.1 µM (not active); in assay [33], 15.1 µM (not active); in [34], > 35.4 µM (not active).
